Here are results for 13 compounds from ChEMBL document CHEMBL1201862, “PubChem BioAssay data set” (2004).

Some test systems named below: 786-0; A498; CCRF-CEM; HCC 2998; HCT-116; HCT-15; HOP-62; MOLT-4; OVCAR-8; SF-268; SF-295; SK-MEL-5; SN12C; UACC-257; UO-31; OVCAR-5; SNB-75.
What all share (experiment): growth of human tumour cells (NCI), 48 h

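Compound exposure: 48 hours, 5 concentrations, 96-well plates. GI50 marks 50% less growth.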 The source made the active and inactive calls. Cut-off read from the data, not from the text of the source: active = GI50 up to about 1.1 µM and inactive = higher. Some results are limits rather than exact numbers.

Turning to `O=C1c2ccccc2C(=O)c2[nH]cnc21`, the GI50 is 75.9 µM (inactive) with 786-0; > 100 µM (inactive) in the assay with A498; 49.9 µM (inactive) in the assay on CCRF-CEM; 48.4 µM (inactive) in the assay with HCC 2998; 45.4 µM (inactive) in the assay on HCT-116; 48.5 µM in the assay on HCT-15. In addition, the GI50 is > 100 µM (inactive) in the assay with HOP-62; 49.5 µM (inactive) with MOLT-4; 34.7 µM (inactive) with OVCAR-8; 93.1 µM (inactive) in the assay with SF-268; 34.3 µM (inactive) with SF-295; 18.1 µM (inactive) in the assay with SK-MEL-5. Moreover, the results for the GI50 in the assay on SN12C, with UACC-257 and with UO-31 were 95.7 µM (inactive), 23 µM (inactive) and > 100 µM (inactive), respectively.
Consider `COc1ccc(/N=C(/[N-]n2c(=O)c(C)nn(C)c2=S)N(c2ccc(OC)cc2)c2n[n+]3c(=O)c(C)nn(C)c3s2)cc1`, for which the GI50 with 786-0 is > 100 µM (inactive); with A498, 93.3 µM (inactive); in the assay with CCRF-CEM it was > 100 µM (inactive); with HCT-116, > 100 µM (inactive); in the assay with HCT-15, greater than 100 µM; in the assay on HOP-62, > 100 µM (inactive). In addition, the GI50 with MOLT-4, in the assay with OVCAR-5, in the assay on OVCAR-8, in the assay with SF-268, with SF-295 and with SK-MEL-5 was > 100 µM (inactive) in each case. Moreover, the GI50 with SN12C, in the assay on SNB-75 and in the assay with UACC-257 was > 100 µM (inactive) each time.
In the case of `CCOC(=O)C1Cc2[nH]c3ccccc3c2C(C)C1C` (centres undefined), the GI50 in the assay on 786-0 was 14.6 µM (inactive); with A498, 17.4 µM (inactive); in the assay with CCRF-CEM, 19.7 µM (inactive); with HCC 2998, > 10 µM (inactive); in the assay on HCT-116, 16.3 µM (inactive); in the assay on HCT-15, 16.7 µM. The GI50 with MOLT-4 is 10.8 µM (inactive); in the assay with OVCAR-5, 17 µM (inactive); with OVCAR-8 it was 3.55 µM (inactive); with SF-268, 19.5 µM (inactive); in the assay on SF-295, 19.4 µM (inactive); with SK-MEL-5 it was 14 µM (inactive). Also, the GI50 in the assay on SN12C was 18.4 µM (inactive); in the assay with SNB-75, 8.09 µM (inactive); in the assay on UACC-257, 17.6 µM (inactive); with UO-31 it was 12.8 µM (inactive).
With `CCOC(=O)c1ccc(/N=N/c2cc(C(=O)OCC)ccc2O)cc1`, the GI50 in the assay with 786-0 was 76 µM (inactive); in the assay on A498, 68.9 µM (inactive); in the assay with CCRF-CEM it was > 100 µM (inactive); in the assay with HCT-116, > 100 µM (inactive); with HCT-15, greater than 100 µM; in the assay on HOP-62 it was > 100 µM (inactive). Besides, the GI50 in the assay with MOLT-4 is 80.7 µM (inactive); in the assay with OVCAR-8 it was > 100 µM (inactive); with SF-268 it was > 100 µM (inactive); with SK-MEL-5, > 100 µM (inactive); in the assay with SN12C, > 100 µM (inactive); in the assay with UO-31 it was > 100 µM (inactive).
Turning to `O=C(C=C1SCCS1)/C=C\c1ccc(Cl)cc1`, the GI50 with 786-0 was > 100 µM (inactive); with A498, > 100 µM (inactive); in the assay on CCRF-CEM, 51.3 µM (inactive); in the assay on HCC 2998, 26.4 µM (inactive); in the assay with HCT-116, > 100 µM (inactive); in the assay with HOP-62, > 100 µM (inactive). For the same compound, the GI50 in the assay with MOLT-4, in the assay with OVCAR-8, in the assay with SF-268, in the assay with SF-295, with SK-MEL-5 and with SN12C was > 100 µM (inactive) each time. Besides, the GI50 in the assay on SNB-75 is > 100 µM (inactive); in the assay with UACC-257, 80.2 µM (inactive); in the assay with UO-31, > 100 µM (inactive).
For `Cc1cc(-c2ccccc2)nc(Nc2nc3ccccc3o2)n1`, the GI50 with 786-0 was > 100 µM (inactive); with A498, > 100 µM (inactive); in the assay on CCRF-CEM, 74 µM (inactive); in the assay with HCC 2998, > 100 µM (inactive); in the assay on HCT-116 it was > 100 µM (inactive); with HCT-15 it was greater than 100 µM. Besides, the GI50 with HOP-62, in the assay with MOLT-4, in the assay on OVCAR-5, in the assay on OVCAR-8, in the assay on SF-268 and in the assay on SF-295 was > 100 µM (inactive) throughout. Besides, the GI50 in the assay on SK-MEL-5, in the assay on SN12C, in the assay on UACC-257 and with UO-31 was > 100 µM (inactive) throughout.
As to `O=c1c2cc(Br)cc(Br)c2nc(CCCl)n1CCO`, the GI50 is > 100 µM (inactive) in the assay on 786-0; 25 µM (inactive) in the assay with A498; 41 µM (inactive) in the assay with CCRF-CEM; > 100 µM (inactive) with HCC 2998; > 100 µM (inactive) with HCT-116; > 100 µM (inactive) in the assay with HOP-62. For the same compound, the GI50 in the assay on MOLT-4 was 46.9 µM (inactive); in the assay with OVCAR-5, > 100 µM (inactive); with OVCAR-8, > 100 µM (inactive); in the assay on SF-268 it was 47.1 µM (inactive); in the assay on SF-295 it was 88.3 µM (inactive); with SK-MEL-5, 53.2 µM (inactive). The GI50 in the assay on SN12C was 97.5 µM (inactive); with SNB-75 it was 22.6 µM (inactive); in the assay with UACC-257 it was 72.9 µM (inactive); in the assay with UO-31, 34.7 µM (inactive).
On to `CC1=C(C(=O)CC(=O)C(=O)Nc2ccccc2C(F)(F)F)Sc2ccccc2N1`, for which the GI50 is > 100 µM (inactive) with 786-0; > 100 µM (inactive) with A498; 49.7 µM (inactive) in the assay on CCRF-CEM; 41.1 µM (inactive) with HCC 2998; 34.8 µM (inactive) in the assay on HCT-116; 48.4 µM with HCT-15. The GI50 in the assay with HOP-62 is 33.9 µM (inactive); in the assay with OVCAR-5, > 100 µM (inactive); with OVCAR-8, 50 µM (inactive); with SF-268 it was 15.7 µM (inactive); in the assay with SF-295 it was 47.4 µM (inactive); in the assay on SK-MEL-5 it was 37.3 µM (inactive). Further, the GI50 was 56.4 µM (inactive) in the assay with SN12C, 4.23 µM (inactive) in the assay on SNB-75, 42.2 µM (inactive) in the assay on UACC-257 and 25.4 µM (inactive) in the assay with UO-31.
With `O=C(CC1(O)C(=O)Nc2c(Cl)cc(Cl)cc21)c1cccc2ccccc12` (centres undefined), the GI50 is 15.8 µM (inactive) in the assay on 786-0; 21.5 µM (inactive) in the assay on A498; 17.8 µM (inactive) in the assay with CCRF-CEM; 15.2 µM (inactive) in the assay with HCT-116; 16.5 µM in the assay on HCT-15; 16.5 µM (inactive) in the assay on HOP-62. Further, the GI50 is 20 µM (inactive) in the assay with MOLT-4; 22.4 µM (inactive) in the assay on OVCAR-5; 18.1 µM (inactive) in the assay with OVCAR-8; 21.4 µM (inactive) with SF-268; 15.7 µM (inactive) with SF-295; 15.2 µM (inactive) with SK-MEL-5. Moreover, the GI50 is 18.4 µM (inactive) with SN12C, 18.2 µM (inactive) with SNB-75 and 15.8 µM (inactive) with UACC-257.
In the case of `CO[C@]12CCC(=O)N1C=Cc1c2[nH]c2ccccc12`, the GI50 is > 100 µM (inactive) in the assay with 786-0; > 100 µM (inactive) in the assay with A498; > 100 µM (inactive) in the assay with CCRF-CEM; > 100 µM (inactive) in the assay on HCC 2998; > 100 µM (inactive) with HCT-116; greater than 100 µM in the assay with HCT-15. The GI50 in the assay on HOP-62, with MOLT-4, with OVCAR-5, with OVCAR-8, in the assay with SF-268 and in the assay on SF-295 was > 100 µM (inactive) each time. The GI50 in the assay with SK-MEL-5, in the assay on SNB-75, in the assay with UACC-257 and in the assay with UO-31 was > 100 µM (inactive) throughout.
`Nc1ccccc1C(=O)/C=C/c1ccccc1O`: the GI50 is 57 µM (inactive) with 786-0; > 100 µM (inactive) in the assay on A498; 33.9 µM (inactive) with CCRF-CEM; 32.3 µM (inactive) with HCC 2998; 38.2 µM (inactive) in the assay on HCT-116; > 100 µM (inactive) with HOP-62. Moreover, the GI50 with MOLT-4 was 31.3 µM (inactive); in the assay with OVCAR-5, > 100 µM (inactive); in the assay with OVCAR-8 it was 50.8 µM (inactive); in the assay on SF-268, 56.5 µM (inactive); in the assay with SF-295, > 100 µM (inactive); with SK-MEL-5 it was 65 µM (inactive). Besides, the GI50 in the assay with SN12C is 55.2 µM (inactive); with SNB-75, 17.5 µM (inactive); in the assay on UACC-257, 15.1 µM (inactive); in the assay on UO-31, 58.5 µM (inactive).
For the compound `CC1CCc2c(sc3ncnc(N/N=C/c4ccc(Cl)c(Cl)c4)c23)C1` (centres undefined), the GI50 in the assay with 786-0 is 15.6 µM (inactive); in the assay on CCRF-CEM it was 4.3 µM (inactive); in the assay on HCC 2998, 23.6 µM (inactive); in the assay with HCT-116, 4.55 µM (inactive); with HCT-15, 9.73 µM; in the assay on HOP-62, 25.2 µM (inactive). The GI50 in the assay with MOLT-4 was 7.4 µM (inactive); in the assay on OVCAR-5, 32.7 µM (inactive); in the assay on OVCAR-8, 17.9 µM (inactive); in the assay on SF-268, 13.3 µM (inactive); with SF-295 it was 11.4 µM (inactive); in the assay with SK-MEL-5, 16.7 µM (inactive). In addition, the GI50 in the assay on SN12C is 19.4 µM (inactive); in the assay on SNB-75, 15.1 µM (inactive); in the assay on UACC-257 it was 31 µM (inactive); in the assay on UO-31, 12.2 µM (inactive).
Regarding `COC(=O)C(=O)C(C(=O)C(=O)Nc1ccc([N+](=O)[O-])cc1C#N)c1nc2ccc([N+](=O)[O-])cc2nc1O` (centres undefined), the GI50 was > 100 µM (inactive) with 786-0; 52.2 µM (inactive) in the assay on A498; > 100 µM (inactive) with CCRF-CEM; > 100 µM (inactive) with HCT-116; greater than 100 µM in the assay on HCT-15; 94.2 µM (inactive) with HOP-62. Moreover, the GI50 in the assay with MOLT-4, in the assay on OVCAR-5, with OVCAR-8, in the assay with SF-268, in the assay on SF-295 and with SN12C was > 100 µM (inactive) throughout. Further, the GI50 with SNB-75, in the assay on UACC-257 and in the assay on UO-31 was > 100 µM (inactive) throughout.
